Data set [1] has as its system Chymotrypsin. Briefly: Inhibition of enzymatic degradation of a model GLP-1 (FRET substrate) by chymotrypsin. It is filed as biochemical. The text has this: (§1) The use of Förster resonance energy transfer (FRET), also known as fluorescence resonance energy transfer, substrates to monitor activity of proteolytic enzymes is known in the field (for example Anjuere, F. et al. (1993). Biochem J 291 (Pt 3), 869-73).
(§2) Model GLP-1 analogue was designed as FRET substrate by incorporation of 7-Methoxycoumarin-4-acetic acid (MCA) group as the donor chromophore and dinitrophenol group (DNP) as the acceptor chromophore.
(§3) An assay following the increase in fluorescence as a function of time was established in 96 well format using Varioskan Flash Multimode Meter (Thermo Scientific). Each well contained 70 μl of Dulbecco's phosphate buffer saline (Invitrogen catalogue #14190-094), 10 μl of 100 μM GLP-1 FRET substrate, 10 μl of N-terminally acylated peptide or oligopeptide of the invention in varying concentration and 10 μl of a stock solution of an enzyme (chymotrypsin, trypsin, elastase, etc.). The incubations were performed at 37° C. Fluorescence (320 nm excitation wavelength and 405 nm emission wavelength) was measured immediately after addition of the enzyme to the 96 well plate and also every minute for at least the next 30 minutes. The concentration of the enzyme was optimized to allow determination of slopes for the time course of initial fluorescence increase with and without the N-terminally acylated peptides or oligopeptides of the invention. The slopes were determined by linear regression of the linear part of the fluorescence trace (for example, the first 10 min of the reaction). Each assay was performed in duplicate and average of the two traces was included in the calculations. The relative effect of N-terminally acylated peptide or oligopeptides of the invention on enzymatic degradation of GLP-1 FRET substrate was obtained by comparison of the slopes achieved by the same concentration of the N-terminally acylated peptide or oligopeptides. […] This was done by plotting the slopes achieved with different concentrations of the N-terminally acylated peptide or oligopeptides of the invention as a function of their concentrations and fitting the experimental results using, for example, sigmoidal logistic regression (2 parameters, Sigma Plot v 11). Inhibition constants for the interaction between the N-terminally acylated peptide or oligopeptides of the invention and proteolytic enzymes were also obtained by performing the assay described above with varying concentrations of the inhibitor and substrate and analyzing the results, for example, by double reciprocal transformation as known to the person skilled in the art and described for example in Hubalek, F. et al., J. Med. Chem. 47, 1760-1766 (2004).
(§4) The EC50 was determined for the following compounds. EC50±standard error is reported if the results of at least 3 independent measurements were available.

Data set [2] relates to Trypsin. Briefly: Inhibition of enzymatic degradation of a model GLP-1 (FRET substrate) by trypsin. It is filed as biochemical.
From the text: as §1, §2, §3, §4

A short description of data set [3]: Hydrophobicity: retention time during reverse phase HPLC. The following applies: Acquity CSH C18; pH 7.2 buffer/CH3CN gradient; 40° C. It is filed as physicochemical. The text has this: The retention time (RT) during reverse phase HPLC was taken as a measure of hydrophobicity of an N-terminally modified peptide or oligopeptide of the invention, where the connection is: The longer the RT, the more hydrophobic N-terminally modified peptide or oligopeptide. The following running conditions were applied during HPLC analysis:
Buffer B: 70% (v/v) aq. CH3CN

The mark [4] stands for this setting: compound 0.1 mM, buffer containing 8% DMSO.

*: point of attachment. Lauroyl = CCCCCCCCCCCC(=O)*

As to “N-dodecanoyl-Ala-Ala-Gln-Tyr-OH (Lauroyl-AAQY-OH; SMILES CCCCCCCCCCCC(=O)N[C@@H](C)C(=O)N[C@@H](C)C(=O)N[C@@H](CCC(N)=O)C(=O)N[C@@H](Cc1ccc(O)cc1)C(=O)O) [Example 61]”, in data set [1] (setting [4]), the “Slope of the initial increase in fluorescence obtained during incubation with 0.001 mg/ml Chymotrypsin” value is listed as 2.20. Also, in data set [2] (setting [4]), the “Slope of the initial increase in fluorescence obtained during incubation with 0.001 mg/ml Trypsin” value turned out to be 2.07. The “RT (retention time during reverse phase HPLC as a measure of hydrophobicity)” value (from here on “RT”) in data set [3] is reported as 8.28 min.
On to “N-dodecanoyl-Ala-Ala-Glu-Tyr-OH (Lauroyl-AAEY-OH; SMILES CCCCCCCCCCCC(=O)N[C@@H](C)C(=O)N[C@@H](C)C(=O)N[C@@H](CCC(=O)O)C(=O)N[C@@H](Cc1ccc(O)cc1)C(=O)O) [Example 62]”, for which the “Slope of the initial increase in fluorescence obtained during incubation with 0.001 mg/ml Chymotrypsin” value in data set [1] (setting [4]) came out at 1.35. Moreover, the “Slope of the initial increase in fluorescence obtained during incubation with 0.001 mg/ml Trypsin” value in data set [2] (setting [4]) was found to be 1.66. For the same substance, the “RT” value in data set [3] came out at 4.36 min.
In the case of “N-dodecanoyl-Ala-Ala-Gly-Tyr-OH (Lauroyl-AAGY-OH; SMILES CCCCCCCCCCCC(=O)N[C@@H](C)C(=O)N[C@@H](C)C(=O)NCC(=O)N[C@@H](Cc1ccc(O)cc1)C(=O)O) [Example 63]”, the “Slope of the initial increase in fluorescence obtained during incubation with 0.001 mg/ml Chymotrypsin” value in data set [1] (setting [4]) is given as 1.89. For the same substance, the “Slope of the initial increase in fluorescence obtained during incubation with 0.001 mg/ml Trypsin” value in data set [2] (setting [4]) worked out at 1.90. Also, the “RT” value in data set [3] came to 5.46 min.
With “N-dodecanoyl-Ala-Ala-His-Tyr-OH (Lauroyl-AAHY-OH; SMILES CCCCCCCCCCCC(=O)N[C@@H](C)C(=O)N[C@@H](C)C(=O)N[C@@H](Cc1c[nH]cn1)C(=O)N[C@@H](Cc1ccc(O)cc1)C(=O)O) [Example 64]”, the “Slope of the initial increase in fluorescence obtained during incubation with 0.001 mg/ml Chymotrypsin” value in data set [1] (setting [4]) worked out at 1.23. For the same substance, the “Slope of the initial increase in fluorescence obtained during incubation with 0.001 mg/ml Trypsin” value in data set [2] (setting [4]) turned out to be 2.23. Further, the “RT” value in data set [3] came out at 5.33 min.
On to “N-dodecanoyl-Ala-Ala-Ile-Tyr-OH (Lauroyl-AAIY-OH; SMILES CCCCCCCCCCCC(=O)N[C@@H](C)C(=O)N[C@@H](C)C(=O)N[C@H](C(=O)N[C@@H](Cc1ccc(O)cc1)C(=O)O)[C@@H](C)CC) [Example 65]”, for which the “Slope of the initial increase in fluorescence obtained during incubation with 0.001 mg/ml Chymotrypsin” value in data set [1] (setting [4]) amounted to 2.04. Further, in data set [2] (setting [4]), the “Slope of the initial increase in fluorescence obtained during incubation with 0.001 mg/ml Trypsin” value came out at 1.60. In addition, in data set [3], the “RT” value turned out to be 3.12 min.
Turning to “N-dodecanoyl-Ala-Ala-Leu-Tyr-OH (Lauroyl-AALY-OH; SMILES CCCCCCCCCCCC(=O)N[C@@H](C)C(=O)N[C@@H](C)C(=O)N[C@@H](CC(C)C)C(=O)N[C@@H](Cc1ccc(O)cc1)C(=O)O) [Example 66]”, the “Slope of the initial increase in fluorescence obtained during incubation with 0.001 mg/ml Chymotrypsin” value in data set [1] (setting [4]) amounted to 0.18. Besides, the “Slope of the initial increase in fluorescence obtained during incubation with 0.001 mg/ml Trypsin” value in data set [2] (setting [4]) is given as 1.98. Also, the “RT” value in data set [3] was determined as 7.18 min.
Turning to “N-dodecanoyl-Ala-Ala-Lys-Tyr-OH (Lauroyl-AAKY-OH; SMILES CCCCCCCCCCCC(=O)N[C@@H](C)C(=O)N[C@@H](C)C(=O)N[C@@H](CCCCN)C(=O)N[C@@H](Cc1ccc(O)cc1)C(=O)O) [Example 67]”, the “Slope of the initial increase in fluorescence obtained during incubation with 0.001 mg/ml Chymotrypsin” value in data set [1] (setting [4]) stood at 0.94. For the same substance, the “Slope of the initial increase in fluorescence obtained during incubation with 0.001 mg/ml Trypsin” value in data set [2] (setting [4]) came out at 1.89. Also, the “RT” value in data set [3] stood at 4.7 min.
For the substance “N-dodecanoyl-Ala-Ala-Met-Tyr-OH (Lauroyl-AAMY-OH; SMILES CCCCCCCCCCCC(=O)N[C@@H](C)C(=O)N[C@@H](C)C(=O)N[C@@H](CCSC)C(=O)N[C@@H](Cc1ccc(O)cc1)C(=O)O) [Example 68]”, in data set [1] (setting [4]), the “Slope of the initial increase in fluorescence obtained during incubation with 0.001 mg/ml Chymotrypsin” value came out at 0.60. Besides, the “Slope of the initial increase in fluorescence obtained during incubation with 0.001 mg/ml Trypsin” value in data set [2] (setting [4]) is 1.73. Moreover, the “RT” value in data set [3] is 6.68 min.
With “N-dodecanoyl-Ala-Ala-Pro-DPhe-OH [Example 4]”, the “Slope of the initial increase in fluorescence obtained during incubation with 0.001 mg/ml Chymotrypsin” value in data set [1] (compound 1 mM) was found to be 0.08. Further, the “Slope of the initial increase in fluorescence obtained during incubation with 0.001 mg/ml Trypsin” value in data set [2] (compound 1 mM) is reported as 0.83. For the same substance, the “RT” value in data set [3] came out at 6.89 min.
Take “N-dodecanoyl-Ala-Ala-Pro-Leu-OH (Lauroyl-AAPL-OH; SMILES CCCCCCCCCCCC(=O)N[C@@H](C)C(=O)N[C@@H](C)C(=O)N1CCC[C@H]1C(=O)N[C@@H](CC(C)C)C(=O)O) [Example 11]”: the “Slope of the initial increase in fluorescence obtained during incubation with 0.001 mg/ml Chymotrypsin” value in data set [1] (compound 1 mM) was found to be 0.77. Further, the “Slope of the initial increase in fluorescence obtained during incubation with 0.001 mg/ml Trypsin” value in data set [2] (compound 1 mM) turned out to be 3.06. Besides, the “RT” value in data set [3] was found to be 1.22 min.
As to “N-dodecanoyl-Ala-Ala-Pro-Trp-OH (Lauroyl-AAPW-OH; SMILES CCCCCCCCCCCC(=O)N[C@@H](C)C(=O)N[C@@H](C)C(=O)N1CCC[C@H]1C(=O)N[C@@H](Cc1c[nH]c2ccccc12)C(=O)O) [Example 26]”, the EC50 in data set [1] (read-out: EC50 Chymotrypsin (0.001 mg/ml), 0.001 mg/ml chymotrypsin, 37° C., ± standard error if at least 3 measurements) stood at 29 ± 2 µM; in data set [2] (read-out: EC50 Trypsin (0.001 mg/ml), 0.001 mg/ml trypsin, 37° C.) it was 413 µM. Besides, in data set [3], the “RT” value came to 7.03 min.
In the case of “N-dodecanoyl-Ala-Ala-Pro-Tyr-OH [Example 69] (Lauroyl-AAPY-OH; SMILES CCCCCCCCCCCC(=O)N[C@@H](C)C(=O)N[C@@H](C)C(=O)N1CCC[C@H]1C(=O)N[C@@H](Cc1ccc(O)cc1)C(=O)O)”, in data set [1] (setting [4]), the “Slope of the initial increase in fluorescence obtained during incubation with 0.001 mg/ml Chymotrypsin” value stood at 0.43. Also, in data set [2] (setting [4]), the “Slope of the initial increase in fluorescence obtained during incubation with 0.001 mg/ml Trypsin” value was 1.83. In addition, the “RT” value in data set [3] is recorded as 5.79 min.
As for “N-dodecanoyl-Ala-Ala-Ser-Tyr-OH (Lauroyl-AASY-OH; SMILES CCCCCCCCCCCC(=O)N[C@@H](C)C(=O)N[C@@H](C)C(=O)N[C@@H](CO)C(=O)N[C@@H](Cc1ccc(O)cc1)C(=O)O) [Example 70]”, the “Slope of the initial increase in fluorescence obtained during incubation with 0.001 mg/ml Chymotrypsin” value in data set [1] (setting [4]) was 1.50. Also, the “Slope of the initial increase in fluorescence obtained during incubation with 0.001 mg/ml Trypsin” value in data set [2] (setting [4]) stood at 1.45. Moreover, the “RT” value in data set [3] was 5.43 min.
Taken in the same sequence, the figures for “N-dodecanoyl-Ala-Ala-Thr-Tyr-OH (Lauroyl-AATY-OH; SMILES CCCCCCCCCCCC(=O)N[C@@H](C)C(=O)N[C@@H](C)C(=O)N[C@H](C(=O)N[C@@H](Cc1ccc(O)cc1)C(=O)O)[C@@H](C)O) [Example 71]” were 0.91, 1.76 and 5.61 min.
As for “N-dodecanoyl-Ala-Ala-Val-Tyr-OH (Lauroyl-AAVY-OH; SMILES CCCCCCCCCCCC(=O)N[C@@H](C)C(=O)N[C@@H](C)C(=O)N[C@H](C(=O)N[C@@H](Cc1ccc(O)cc1)C(=O)O)C(C)C) [Example 72]”, the “Slope of the initial increase in fluorescence obtained during incubation with 0.001 mg/ml Chymotrypsin” value in data set [1] (setting [4]) is on record as 1.18. Besides, the “Slope of the initial increase in fluorescence obtained during incubation with 0.001 mg/ml Trypsin” value in data set [2] (setting [4]) stood at 1.52. Also, the “RT” value in data set [3] is given as 6.44 min.
Take “N-dodecanoyl-Ala-Arg-Pro-Tyr-OH (Lauroyl-ARPY-OH; SMILES CCCCCCCCCCCC(=O)N[C@@H](C)C(=O)N[C@@H](CCCNC(=N)N)C(=O)N1CCC[C@H]1C(=O)N[C@@H](Cc1ccc(O)cc1)C(=O)O) [Example 73]”: the “Slope of the initial increase in fluorescence obtained during incubation with 0.001 mg/ml Chymotrypsin” value in data set [1] (setting [4]) is recorded as 0.08. Also, the “Slope of the initial increase in fluorescence obtained during incubation with 0.001 mg/ml Trypsin” value in data set [2] (setting [4]) was found to be 1.67. In addition, the “RT” value in data set [3] was determined as 5.34 min.
As to “N-dodecanoyl-Ala-Asn-Pro-Tyr-OH (Lauroyl-ANPY-OH; SMILES CCCCCCCCCCCC(=O)N[C@@H](C)C(=O)N[C@@H](CC(N)=O)C(=O)N1CCC[C@H]1C(=O)N[C@@H](Cc1ccc(O)cc1)C(=O)O) [Example 74]”, the “Slope of the initial increase in fluorescence obtained during incubation with 0.001 mg/ml Chymotrypsin” value in data set [1] (setting [4]) was determined as 1.66. Besides, the “Slope of the initial increase in fluorescence obtained during incubation with 0.001 mg/ml Trypsin” value in data set [2] (setting [4]) stood at 2.27. Also, the “RT” value in data set [3] amounted to 5.27 min.
